Data taken from patent US20240382480A1, “PHARMACEUTICAL COMPOSITION CONTAINING JAK3/JAK1/TBK1 SELECTIVE INHIBITOR AND MEDICAL USE THEREOF” (SHENZHEN CHIPSCREEN BIOSCIENCES CO., LTD., priority 2021, published 2024).

Columns and labels:
Type in all cases: in vivo
Balb/c mice = assay: DNCB-induced atopic dermatitis model in mice, oral gavage; settings: 50 mg/kg twice a day oral gavage, vs model group
Method: Drug preparation: appropriate amount of powder of sample for test was weighed accurately and put in a sample preparation tube. Purified water was added and sonication was performed until the sample was completely dissolved, and a concentration of 5 mg/ml (based on active ingredient) was prepared, and it was administered within 15 minutes after preparation.
Experimental animals: Balb/c mice were purchased from Sichuan Academy of Traditional Chinese Medicine, 27 mice in total.
Grouping: Balb/c mice (27 mice in total) were randomly divided into three groups, 9 mice in each group, which were blank group, model group and administration group respectively.
Modeling: 300 μl of 1% DNCB was applied to the abdomen of mice in the model group and administration group, and 0.5% DNCB was applied to the ears every other day after 7 d, and lasted for 31 days.
Administration: administration was carried out after 12 days of modeling. Administration group: dosage and frequency of administration: 50 mg/kg (based on active ingredient), twice a day. Model group: the same dose of vehicle was given. The administration cycle was 3 weeks (12 d-31 d). The method of administration: oral gavage.
• (1) General observation: ear thickness and spleen/body weight ratio. At the end point of the test, the body weight of mice was weighed, and the left and right ear thickness (mm) of mice was measured, and then the mice were subjected to gross anatomy, and the spleen of mice was weighed to calculate the spleen/body weight ratio of mice. • (2) Serum: IgE. At the end point of the test, blood was collected from the orbit of mice, and the total IgE in the serum of mice was detected (ELISA method). • (3) Histopathology: HE staining of the ear (to measure ear epidermal thickness) and toluidine blue staining (to measure the number of mast cells in the ear epidermis).
HE staining of ears: the fixed mouse ear tissue was dehydrated by automatic dehydrator and embedded, and then sliced. After dewaxing the slices to water, hematoxylin staining was performed until blue appeared; after elution, eosin staining was performed for sealing, and finally microscopy and image acquisition were carried out.
The above specimens were subjected to the procedures of dehydration, trimming, embedding, slicing, staining, sealing, and other procedures, and finally microscopy and image acquisition were carried out.

normal animals = assay: Spleen weight in normal animals; settings: no dose or method printed
[1] = system: C57BL/6J mice with alopecia areata; assay: Alopecia areata mouse model, oral gavage; settings: 80 mg/kg twice a day oral gavage for 23 d
Method: Drug preparation: appropriate amount of powder of test sample was weighed accurately and put in a sample preparation tube, then add purified water was added and sonification was performed until the sample was completely dissolved. A concentration of 8 mg/ml (based on active ingredient) was prepared, and it was administered within 15 minutes after preparation.
Experimental animals: 16 C57BL/6J mice with alopecia areata, female, 12 weeks old. They were purchased from Beijing Vital River Laboratory Animal Technology Co., Ltd. Animal inclusion criteria: mice with patchy and traceless hair loss, mainly with back hair loss and head hair loss.
Grouping and criteria: 14 C57BL/6J mice were enrolled in the groups, and 5 mice in the model group, 9 mice in the administration group (test sample). The overall situation of hair loss in the administration group was more serious than that in the model group.
Administration information: administration group: single dose: 80 mg/kg (based on active ingredient) twice a day for 23 d continuously; model group: equal doses of vehicle given. Method of administration: oral gavage.
Record of change rate of body weight and alopecia areata area: measured twice a week, weighed and observed with naked eyes on Monday and Thursday.
Spleen size and weight: at the end of the test, the body weight of mice was weighed, and then the mice were subjected to gross anatomy, the spleen of the mice was observed and weighed to calculate the spleen/body weight ratio of mice.

[2] = end point, vs model group, p<0.05

- weight of spleen in normal animals (normal animals): does not reduce the weight of spleen
Structure (SMILES): C=CC(=O)N(C)c1cc(Nc2ncc(Cl)c(NCCCNC(=O)c3ccc(C#N)cc3)n2)ccc1F [test sample, N-(3-((5-chloro-2-((4-fluoro-3-(N-methylacrylamido)phenyl)amino)-4-pyrimidinyl)amino)propyl)-4-cyanobenzamide]
- spleen/body weight ratio (Balb/c mice; 3 weeks (12 d-31 d), end point, # p<0.05): significantly reduced
- ear epidermal thickness (Balb/c mice; 3 weeks, HE staining, # p<0.05): significantly decreased
- serum IgE level (Balb/c mice; 3 weeks, end point, ELISA, ## p<0.01): significantly decreased
- ear thickness (including the left ear and the right ear) (Balb/c mice; 3 weeks, end point, # p<0.05): significantly reduced
- number of mast cells in ear epidermis (Balb/c mice; 3 weeks, toluidine blue staining, # p<0.05): significantly decreased
- spleen weight [1, 2]: significantly lower
- spleen/body weight ratio [1, 2]: significantly lower
- alopecia areata area ([1]; better than model group (vehicle), p<0.01): significantly ameliorated
